Measurements: publication PMC8341922, “Glycosylated cyclophellitol-derived activity-based probes and inhibitors for cellulases” (RSC Chemical Biology, 2020)
Blank lines part the entries; values can stand above or below the molecule they belong to.

Legend:
HiCel7B [1] = molecular target: T1, HiCel7B (Mycothermus thermophilus, UniProt P56680); test: continuous fluorescence inhibition kinetics with 4MU-GG, kapp vs [inhibitor]; also intact MS and crystal structure; type: biochemical; conditions: covalent; 50 mM sodium phosphate pH 7, 25 °C; 50 μM 4MU-GG; corrected for substrate KM; nucleophile E197; read-out: HiCel7B / K I
T1 construct: gene CEL7B; purified enzyme, gift from Novozymes; deglycosylated for crystals
T1 sequence (P56680 1-402): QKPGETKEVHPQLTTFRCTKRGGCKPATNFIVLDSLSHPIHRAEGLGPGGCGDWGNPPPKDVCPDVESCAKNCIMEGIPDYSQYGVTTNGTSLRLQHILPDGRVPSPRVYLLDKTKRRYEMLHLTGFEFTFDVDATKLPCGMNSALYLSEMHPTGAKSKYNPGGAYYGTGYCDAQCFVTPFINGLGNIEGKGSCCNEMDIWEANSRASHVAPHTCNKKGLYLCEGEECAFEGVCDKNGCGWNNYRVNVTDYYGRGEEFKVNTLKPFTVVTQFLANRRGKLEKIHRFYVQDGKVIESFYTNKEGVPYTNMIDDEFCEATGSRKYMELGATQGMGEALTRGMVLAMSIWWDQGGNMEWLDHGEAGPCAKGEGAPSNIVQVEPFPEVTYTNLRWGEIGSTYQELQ
Excerpt: continuous fluorescence inhibition kinetics with 4MU-GG, kapp vs [inhibitor]; also intact MS and crystal structure on HiCel7B

CbhB = molecular target: T2, CbhB (Aspergillus niger, UniProt Q9UVS8); test: biotin-avidin pulldown, label-free LC-MS/MS quantification; type: binding; conditions: covalent; labelled compound; native secretome, 37 °C, 2 h
T2 construct: native, in xylan-grown A. niger secretome; about 80 kDa band
T2 sequence (Q9UVS8 22-536): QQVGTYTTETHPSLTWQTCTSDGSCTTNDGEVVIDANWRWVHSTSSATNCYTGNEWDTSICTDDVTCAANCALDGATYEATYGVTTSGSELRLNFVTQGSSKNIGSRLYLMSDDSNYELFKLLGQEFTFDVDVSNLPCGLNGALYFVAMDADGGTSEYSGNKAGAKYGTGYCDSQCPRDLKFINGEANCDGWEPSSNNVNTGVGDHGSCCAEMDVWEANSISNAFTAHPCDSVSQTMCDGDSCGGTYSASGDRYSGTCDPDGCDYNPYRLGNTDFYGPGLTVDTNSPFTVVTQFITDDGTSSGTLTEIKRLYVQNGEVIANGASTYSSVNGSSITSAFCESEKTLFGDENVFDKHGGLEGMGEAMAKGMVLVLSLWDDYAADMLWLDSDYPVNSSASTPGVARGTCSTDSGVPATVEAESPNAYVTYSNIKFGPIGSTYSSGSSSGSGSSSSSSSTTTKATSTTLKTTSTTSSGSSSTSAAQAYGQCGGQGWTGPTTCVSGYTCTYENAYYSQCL

XynC = molecular target: T3, XynC (Aspergillus niger, UniProt A2QFV7); test: as above; type: binding; conditions: covalent; labelled compound; native secretome, 37 °C, 2 h
T3 construct: gene xlnC; native, in xylan-grown A. niger secretome; about 35 kDa band

CbhA = molecular target: T4, CbhA (Aspergillus niger, UniProt Q9UVS9); test: as above; type: binding; conditions: covalent; labelled compound; native secretome, 37 °C, 2 h
T4 construct: native, in xylan-grown A. niger secretome; about 60 kDa band
T4 sequence (Q9UVS9 18-452): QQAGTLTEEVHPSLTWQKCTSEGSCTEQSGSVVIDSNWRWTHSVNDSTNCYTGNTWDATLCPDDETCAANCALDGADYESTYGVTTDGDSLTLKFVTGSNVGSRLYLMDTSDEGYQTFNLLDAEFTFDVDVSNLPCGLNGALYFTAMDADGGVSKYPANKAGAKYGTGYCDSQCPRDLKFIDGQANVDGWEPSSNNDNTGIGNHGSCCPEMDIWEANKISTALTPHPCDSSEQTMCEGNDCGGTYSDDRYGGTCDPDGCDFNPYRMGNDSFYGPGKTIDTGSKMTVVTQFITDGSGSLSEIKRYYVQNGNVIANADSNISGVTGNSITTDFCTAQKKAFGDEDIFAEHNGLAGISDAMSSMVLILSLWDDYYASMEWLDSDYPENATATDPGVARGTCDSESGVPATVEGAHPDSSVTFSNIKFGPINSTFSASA

HiCel7B [2] = molecular target: T1, HiCel7B; test: continuous fluorescence inhibition kinetics with 4MU-GG, kapp vs [inhibitor]; type: biochemical; conditions: covalent, 50 mM sodium phosphate pH 7, 25 °C, 50 μM 4MU-GG, corrected for substrate KM, read-out: HiCel7B / K I
Excerpt: continuous fluorescence inhibition kinetics with 4MU-GG, kapp vs [inhibitor] on HiCel7B

[3] = substrate: Cc1cc(=O)oc2cc(O[C@@H]3O[C@H](CO)[C@@H](O[C@@H]4O[C@H](CO)[C@@H](O)[C@H](O)[C@H]4O)[C@H](O)[C@H]3O)ccc12; test: fluorescence, 4-methylumbelliferone release; type: biochemical, Mycothermus thermophilus; conditions: 50 mM sodium phosphate pH 7, 25 °C, corrected for inner filter effect
Excerpt: fluorescence, 4-methylumbelliferone release on HiCel7B | The KM value for the interaction of HiCel7B with 4MU-GG under the assay conditions

- KI (inactivation) (HiCel7B [1]): 31 ± 4 µM
Molecule: OC[C@@H]1C(O[C@@H]2O[C@H](CO)[C@@H](O)[C@H](O)[C@H]2O)C(O)C(O)[C@@H]2O[C@H]12 (stereo partly shown) [compound 1, Cellobiose configured cyclophellitol]

- KI (inactivation) (HiCel7B [2]): 3.9 ± 0.3 µM
Molecule: [N-]=[N+]=NCCOCCOCCOCC(=O)N[C@H]1[C@H](O)[C@@H](O)[C@H](O[C@H]2[C@H](O)[C@@H](O)[C@@H]3O[C@@H]3[C@@H]2CO)O[C@@H]1CO [compound 13, probe 13]

- KI (inactivation) (HiCel7B [2]; compound also hydrolysed internally by the enzyme): 1.9 ± 0.3 µM
Molecule: OC[C@@H]1C(O[C@@H]2O[C@H](CO)[C@@H](O[C@@H]3O[C@H](CO)[C@@H](O)[C@H](O)[C@H]3O)[C@H](O)[C@H]2O)C(O)C(O)[C@@H]2O[C@H]12 (stereo partly shown) [compound 5, inhibitor 5]

The next lines start with the molecule.

Molecule: O=C(CCCC[C@@H]1SC[C@@H]2NC(=O)N[C@@H]21)NCCOCCOCCOCC(=O)N[C@H]1[C@H](O)[C@@H](O)[C@H](O[C@H]2[C@H](O)[C@@H](O)[C@@H]3O[C@@H]3[C@@H]2CO)O[C@@H]1CO [compound 15, probe 15]
- biotin-avidin pulldown, label-free LC-MS/MS quantification (CbhB): detected at elevated levels in the probe 15-treated samples relative to the negative control were CbhA, CbhB
- biotin-avidin pulldown, label-free LC-MS/MS quantification (XynC): relative to the negative control were CbhA, CbhB, and XynC
- biotin-avidin pulldown, label-free LC-MS/MS quantification (CbhA): detected at elevated levels in the probe 15-treated samples relative to the negative control were CbhA

B1: HiCel7B (Mycothermus thermophilus) (protein)
chain: T1 sequence (P56680 1-402)
notes: purified enzyme, gift from Novozymes; deglycosylated for crystals
- Km [3]: 76 µM
